What all share (type): physicochemical
Series [1] is described as follows: Physical stability on storage (crystalline form by XRPD before and after storage). The method, then: (§1) Samples of Form CS2, Form CS4 and the prior art amorphous were stored under condition of 25° C./60% RH (open). Crystalline form and chemical impurity were tested.
(§2) Samples of Form CS2, Form CS4 and the prior art amorphous were stored under condition of 40° C./75% RH (open). Crystalline form and chemical impurity were tested.
(§3) Samples of Form CS2, Form CS4 and the prior art amorphous were stored under condition of 60° C./75% RH (open). Crystalline form and chemical impurity were tested.

The nature of series [2]: Chemical stability on storage (purity / chemical impurity). Conditions: for Change of Purity: versus initial purity. The method, then:
as §1, §2, §3

A further series is described as follows: Residual solvents test. The method, then: Residual solvents of Form CS2, Form CS4 and the prior art amorphous were tested. […] According to the guideline of the International Council for Harmonization (ICH) on residual solvents, dichloromethane belongs to Class 2 solvents, and the residual solvent content must not exceed 600 ppm. It can be seen that the residue of dichloromethane in the amorphous solid is much higher than the limits of ICH guideline, and the amorphous not suitable for use as drug substance.

Series [3] in a line: Hygroscopicity by dynamic vapor sorption (DVS). As to conditions: for Weight gain under 80% Relative Humidity (Hygroscopicity): DVS, 25° C., 80% RH, about 10 mg of sample; for hygroscopicity as share of that of the prior art solid: relative to prior art solid, weight gain at 80% RH. Here is the method:
Dynamic Vapor Sorption (DVS) was collected via an SMS (Surface Measurement Systems Ltd.) intrinsic DVS instrument. Its control software is DVS-Intrinsic control software, and its analysis software is DVS-Intrinsic Analysis software. Typical Parameters for DVS test are as follows: • Temperature: 25° C. • Gas and flow rate: N2, 200 mL/min • dm/dt: 0.002%/min • RH range: 0% RH to 95% RH
Dynamic vapor sorption (DVS) was applied to test hygroscopicity of Form CS2, Form CS4 and the prior art amorphous with about 10 mg of samples.

The nature of series [4]: Particle size distribution. As to conditions: in Isopar G containing 0.2% lecithin. Here is the method: Form CS2 and Form CS4 of the present disclosure were added into 10 mL of Isopar G (containing 0.2% lecithin). The mixture was mixed thoroughly and transferred into the SDC. The measurement was started when the sample amount indicator is in appropriate position. The average particle diameter calculated by volume, the diameter at which 10% mass is comprised of smaller particles, the diameter at which 50% mass is comprised of smaller particles and the diameter at which 90% mass is comprised of smaller particles were obtained in particle size distribution test. Subsequently, the particle size distribution plot of crystalline forms was obtained.
MV: Average particle diameter calculated by volume.
D10: the size in microns below which 10 percent of the particles reside on a volume basis.
D50: the size in microns below which 50 percent of the particles reside on a volume basis, also known as the median diameter.
D90: the size in microns below which 90 percent of the particles reside on a volume basis.

Where [5] appears, read: 60° C./75% RH (open), 2 weeks, listed as prior art amorphous.

The values below come from patent publication US20210171568A1, “CRYSTALLINE FORMS OF SELECTIVE PROGESTERONE RECEPTOR MODULATOR, PROCESSES FOR PREPARATION THEREOF” (Crystal Pharmaceutical (Suzhou) Co., Ltd., priority 2017, published 2021).

“Also recorded” adds a separate entry of the source. Like-named read-outs stand apart in the source and are kept apart here.

`C[C@]12C[C@H](c3ccc(S(C)(=O)=O)cc3)C3=C4CCC(=O)C=C4CC[C@H]3[C@@H]1CC[C@@]2(O)C(F)(F)C(F)(F)F` [Amorphous, (11β, 17β)-17-hydroxy-11-[4-(methylsulfonyl)phenyl]-17-(pentafluoroethyl)estra-4,9-diene-3-one, reference compound]: the “Solid Form after Storage” value in series [1] (25° C./60% RH (open), 6 months) is “Amorphous”; in series [1] (40° C./75% RH (open), 6 months), “Amorphous + Form CS2”; in series [1] (40° C./75% RH (open), 6 months, listed as prior art amorphous), “partially converted to Form CS2”; in series [1] (40° C./75% RH (open), 6 months, listed as prior art solid), “partially converts to Form CS2”; in series [1] (60° C./75% RH (open), 2 weeks), “Amorphous + Form CS2”; in series [1] (setting [5]), “partially converted to Form CS2”. Besides, the “Solid Form after Storage” value in series [1] (60° C./75% RH (open), 2 weeks, listed as prior art solid) was “partially converts to Form CS2”. Further, the “Purity after 6 Months” value in series [2] (25° C./60% RH (open), 6 months) turned out to be 97.88%. In addition, the “Change of Purity” value amounted to 0.80% in series [2] (25° C./60% RH (open), 6 months); 0.80% in series [2] (25° C./60% RH (open), 6 months, listed as amorphous); 0.80% in series [2] (25° C./60% RH (open), 6 months, listed as prior art amorphous); 1.08% in series [2] (40° C./75% RH (open), 3 months); 1.08% in series [2] (40° C./75% RH (open), 3 months, listed as amorphous); 1.08% in series [2] (40° C./75% RH (open), 3 months, listed as prior art amorphous). The “Change of Purity” value was determined as 0.98% in series [2] (60° C./75% RH (open), 2 weeks); 0.98% in series [2] (60° C./75% RH (open), 2 weeks, listed as amorphous); 0.98% in series [2] (setting [5]). The “stability on storage (in words)” value in series [2] (25° C./60% RH, 40° C./75% RH and 60° C./75% RH) is reported as “unstable”. Further, the “Purity after 3 Months” value in series [2] (40° C./75% RH (open), 3 months) stood at 97.60%. Moreover, the “Purity after 2 Weeks” value in series [2] (60° C./75% RH (open), 2 weeks) amounted to 97.70%. Besides, the “Residual solvents (in words)” value was “significantly higher than specification” in “Residual solvents test” and “exceeds the standard” in the series “Residual solvents test” (listed as prior art). The dichloromethane residue in “Residual solvents test” (ICH limit 600 ppm) is listed as 64185 ppm. Moreover, the entries for the “Weight gain under 80% Relative Humidity (Hygroscopicity)” value (“Weight gain under 80% Relative Humidity” below) in series [3] and in series [3] (listed as prior art solids) were 1.89% and “up to 1.89%”, respectively.
Consider `C[C@]12C[C@H](c3ccc(S(C)(=O)=O)cc3)C3=C4CCC(=O)C=C4CC[C@H]3[C@@H]1CC[C@@]2(O)C(F)(F)C(F)(F)F` [Form CS2, (11β, 17β)-17-hydroxy-11-[4-(methylsulfonyl)phenyl]-17-(pentafluoroethyl)estra-4,9-diene-3-one], for which the “Solid Form after Storage” value in series [1] (25° C./60% RH (open), 6 months) was “remain unchanged; also recorded: Form CS2”. Also, the “Solid Form after Storage” value in series [1] (40° C./75% RH (open), 6 months) is given as “remain unchanged; also recorded: Form CS2”. In addition, the “Solid Form after Storage” value in series [1] (60° C./75% RH (open), 2 weeks) is reported as “remain unchanged; also recorded: Form CS2”. Besides, in series [4], the D10 is listed as 3.09 μm; the D50 amounted to 8.41 μm; the D90 is recorded as 27.45 μm; the “MV, average particle diameter calculated by volume” value is 13.16 μm. Also, in series [2] (25° C./60% RH (open), 6 months), the “Purity after 6 Months” value turned out to be 98.58% and the “Change of Purity” value came out at 0.06%. Also, the “Change of Purity” value in series [2] (25° C./60% RH (open), 6 months, listed as CS2) was determined as 0.06%. For the same compound, in series [2] (40° C./75% RH (open), 3 months), the “Purity after 3 Months” value came to 98.37% and the “Change of Purity” value was found to be 0.27%. Further, the “Change of Purity” value in series [2] (40° C./75% RH (open), 3 months, listed as CS2) is 0.27%. In addition, in series [2] (60° C./75% RH (open), 2 weeks), the “Purity after 2 Weeks” value is listed as 98.59% and the “Change of Purity” value was determined as 0.05%. Moreover, in series [2] (60° C./75% RH (open), 2 weeks, listed as CS2), the “Change of Purity” value is 0.05%. Further, in the series “Residual solvents test”, the “Residual solvents (in words)” value is reported as “almost no residual solvent”. Also, in series [3], the “Weight gain under 80% Relative Humidity” value is on record as 0.23% and the “hygroscopicity as share of that of the prior art solid” value was “less than 15%”.
Turning to `C[C@]12C[C@H](c3ccc(S(C)(=O)=O)cc3)C3=C4CCC(=O)C=C4CC[C@H]3[C@@H]1CC[C@@]2(O)C(F)(F)C(F)(F)F` [Form CS4, (11β, 17β)-17-hydroxy-11-[4-(methylsulfonyl)phenyl]-17-(pentafluoroethyl)estra-4,9-diene-3-one], in series [1] (25° C./60% RH (open), 6 months), the “Solid Form after Storage” value was “remain unchanged; also recorded: Form CS4”. For the same compound, in series [1] (40° C./75% RH (open), 6 months), the “Solid Form after Storage” value is “remain unchanged; also recorded: Form CS4”. Besides, in series [1] (60° C./75% RH (open), 2 weeks), the “Solid Form after Storage” value is “remain unchanged; also recorded: Form CS4”. For the same compound, in series [4], the D10 was found to be 2.32 μm; the D50 worked out at 6.20 μm; the D90 was 23.12 μm; the “MV, average particle diameter calculated by volume” value is on record as 11.41 μm. In series [2] (25° C./60% RH (open), 6 months), the “Purity after 6 Months” value stood at 99.31% and the “Change of Purity” value came out at 0.13%. Also, the “Change of Purity” value in series [2] (25° C./60% RH (open), 6 months, listed as CS4) worked out at 0.13%. Further, in series [2] (40° C./75% RH (open), 3 months), the “Purity after 3 Months” value is given as 99.42% and the “Change of Purity” value turned out to be 0.02%. Moreover, the “Change of Purity” value in series [2] (40° C./75% RH (open), 3 months, listed as CS4) is on record as 0.02%. Besides, in series [2] (60° C./75% RH (open), 2 weeks), the “Purity after 2 Weeks” value stood at 99.47% and the “Change of Purity” value is 0.03%. Moreover, in series [2] (60° C./75% RH (open), 2 weeks, listed as CS4), the “Change of Purity” value was 0.03%. The “Residual solvents (in words)” value in the series “Residual solvents test” is reported as “almost no residual solvent”. For the same compound, in series [3], the “Weight gain under 80% Relative Humidity” value is listed as 0.12% and the “hygroscopicity as share of that of the prior art solid” value was “less than 10%”.
